Laboratory results taken from patent US11773379B2, “Enzymes and reagents for measurement of short chain fatty acids” (SYSMEX CORPORATION, priority 2018, dated 2023).

Tests used:
[1] = test system: BKII (recombinant butyrate kinase derived from Acetoanaerobium sticklandii); assay: Substrate specificity of butyrate kinase BKII; assay type: biochemical; conditions: 100 mM sodium salt of fatty acid in second reagent, pH 7.5
Experimental: (§1) Various fatty acids shown in Table 1 were used as a substrate. The measurement was performed using a 7180 type Hitachi automatic analyzer (Hitachi High-Tech Corporation). […] PHARMA CORPORATION) • 5 U/mL ADP-HK II (ADP dependent hexokinase: […] PHARMA CORPORATION) […] In the composition of the second reagent, “sodium salts of various fatty acids” means any one kind of sodium caprylate, sodium caproate, sodium valerate, sodium isovalerate, sodium butyrate, sodium isobutyrate, sodium propionate, sodium acetate, sodium lactate, and sodium succinate. Isobutyric acid, valeric acid, isovaleric acid, caproic acid, and octanoic acid, which are commercially available fatty acids and are not sold as sodium salts, were adjusted to pH 7.5 with sodium hydroxide. […] [Measurement Parameters of Automatic Analyzer] • Analysis method: […]

[2] = test system: BKIII (recombinant butyrate kinase derived from Thermosediminibacter oceani); assay: Substrate specificity of butyrate kinase BKIII; assay type: biochemical; conditions: 100 mM sodium salt of fatty acid in second reagent, pH 7.5
Experimental: as §1

acetate kinase (AK) = target: T1, acetate kinase (AK) (Escherichia coli, UniProt P0A6A3); assay: Comparative Example 1: measurement using acetate kinase, reaction recovery rate; assay type: biochemical, E. coli; conditions: 5 mM substrate
T1 construct: purchased Sigma-Aldrich Co. LLC
Experimental: (§2) It was examined whether butyric acid could be measured by using acetate kinase (AK) or propionic acid kinase (PK) instead of butyrate kinase. For comparison, measurement using BKIII was also performed.
(§3) Neutralized 100 mM acetic acid, butyric acid, and isobutyric acid were mixed with physiological saline to prepare a 5 mM acetic acid aqueous solution, a 5 mM butyric acid aqueous solution, and a 5 mM isobutyric acid aqueous solution, respectively.
(§4) The composition of the first reagent was the same as that of the first reagent used for examining the substrate specificity of Reference Example 7.
(§5) AK (Sigma-Aldrich Co. LLC., derived from E. coli), PK (MyBioSource, recombinant protein) and BKIII were added to 100 mM Tris-HCl (pH 7.5) (Sigma-Aldrich Co. LLC.), respectively, to prepare an enzyme solution containing each enzyme at a concentration of 1.25 to 40 U/mL.
(§6) The measurement was performed using a 7180 type Hitachi automatic analyzer (Hitachi High-Tech Corporation). The measurement parameters of the automatic analyzer were the same as in Example 2.
(§7) In the same manner as in Example 2, butyric acid and isobutyric acid in the sample were measured by the automatic analyzer. The reaction recovery rate (%) was calculated by dividing the measured value by the theoretical absorbance value. The theoretical absorbance is the absorbance when all the substrate (butyric acid or isobutyric acid) in the sample is converted to NADPH, and is calculated by the following formula. […] (Theoretical absorbance)= (substrate concentration in sample)×[(sample volume)/(sample volume+ first reagent amount+second reagent amount)]×(NADPH millimole molecular extinction coefficient at 340 nm)= 5×[3.5/(3.5+140+35)]×6.3= 0.617

[3] = test system: propionic acid kinase (PK); assay: Comparative Example 1: measurement using propionic acid kinase, reaction recovery rate; assay type: biochemical; conditions: 5 mM substrate
Experimental: as §2, §3, §4, §5, §6, §7

BKIII = assay: Comparative Example 1: measurement using BKIII, reaction recovery rate; assay type: biochemical, Thermosediminibacter oceani; conditions: 5 mM substrate
Experimental: as §2, §3, §4, §5, §6, §7

[4] = test system: acetate-CoA transferase (EC 2.8.3.8); assay: Comparative Example 2: measurement using acetate-CoA transferase, reaction recovery rate; assay type: biochemical, E. coli; conditions: 30 μg/mL acetate-CoA transferase in second reagent; 5 mM substrate
Description: Acetate-CoA transferase (EC 2.8.3.8) has been reported to catalyze the reaction represented by the following formula (9) (EC 2.8.3.8 in the Enzyme nomenclature database on the ExPASy-SIB Bioinformatics Resource Portal).). It was examined whether butyric acid could be measured by the reaction of formula (10), which is the reverse reaction of formula (9), using acetate-CoA transferase instead of butyrate kinase The acetic acid produced by the formula (10) by acetate-CoA transferase was confirmed by the reaction with AK of Comparative Example 1. The measurement was performed using a 7180 type Hitachi automatic analyzer (Hitachi High-Tech Corporation). [Chemical formula 7] Acyl-CoA+acetic acid ? fatty acid+acetyl-CoA (9) Butyric acid+acetyl-CoA→butyrate-CoA+acetic acid (10)
The 5 mM butyric acid and 5 mM isobutyric acid aqueous solution used in Comparative Example 1 were used. […]
In the same manner as in Example 2, butyric acid and isobutyric acid in the sample were measured by the automatic analyzer. The reaction recovery rate (%) was calculated by dividing the measured value by the theoretical absorbance value of Comparative Example 1.

[5] = test system: butyrate-acetoacetate-CoA transferase (EC 2.8.3.9); assay: Comparative Example 3: measurement using butyrate-acetoacetate-CoA transferase, reaction recovery rate; assay type: biochemical, E. coli; conditions: 60 μg/mL butyrate-acetoacetate-CoA transferase in second reagent; 5 mM substrate
Experimental: It was examined whether acetic acid and butyric acid could be measured by the reaction of formula (12), which is the reverse reaction of the formula (11), using butyrate-[…] transferase instead of butyrate kinase. […] The measurement was performed using a 7180 type Hitachi automatic analyzer (Hitachi High-Tech Corporation). […] LLC.) • 0.35 mM Acetoacetyl-CoA (Sigma-Aldrich Co. LLC.) • 2 mM MgCl2 (FUJIFILM Wako Pure Chemical Corporation) • 0.25 mM β-NADH (Oriental Yeast Co., Ltd.) • 5 U/mL 3-hydroxybutyrate dehydrogenase (FUJIFILM Wako Pure Chemical Corporation) […] LLC.) The measurement was performed using a 7180 type Hitachi automatic analyzer (Hitachi High-Tech Corporation). The measurement parameters of the automatic analyzer were the same as in Example 2.

[6] = AK activity value in reaction mixed solution 0.3 U/mL
[7] = AK activity value in reaction mixed solution 0.5 U/mL
[8] = AK activity value in reaction mixed solution 1.0 U/mL
[9] = AK activity value in reaction mixed solution 2.0 U/mL
[10] = AK activity value in reaction mixed solution 4.0 U/mL
[11] = AK activity value in reaction mixed solution 8.0 U/mL
[12] = PK activity value in reaction mixed solution 0.3 U/mL
[13] = PK activity value in reaction mixed solution 0.5 U/mL
[14] = PK activity value in reaction mixed solution 1.0 U/mL
[15] = PK activity value in reaction mixed solution 2.0 U/mL
[16] = PK activity value in reaction mixed solution 4.0 U/mL
[17] = PK activity value in reaction mixed solution 8.0 U/mL
[18] = BKIII activity value in reaction mixed solution 0.3 U/mL
[19] = BKIII activity value in reaction mixed solution 0.5 U/mL
[20] = BKIII activity value in reaction mixed solution 1.0 U/mL
[21] = BKIII activity value in reaction mixed solution 2.0 U/mL
[22] = BKIII activity value in reaction mixed solution 4.0 U/mL
[23] = BKIII activity value in reaction mixed solution 8.0 U/mL

T1 sequence (P0A6A3 whole entry): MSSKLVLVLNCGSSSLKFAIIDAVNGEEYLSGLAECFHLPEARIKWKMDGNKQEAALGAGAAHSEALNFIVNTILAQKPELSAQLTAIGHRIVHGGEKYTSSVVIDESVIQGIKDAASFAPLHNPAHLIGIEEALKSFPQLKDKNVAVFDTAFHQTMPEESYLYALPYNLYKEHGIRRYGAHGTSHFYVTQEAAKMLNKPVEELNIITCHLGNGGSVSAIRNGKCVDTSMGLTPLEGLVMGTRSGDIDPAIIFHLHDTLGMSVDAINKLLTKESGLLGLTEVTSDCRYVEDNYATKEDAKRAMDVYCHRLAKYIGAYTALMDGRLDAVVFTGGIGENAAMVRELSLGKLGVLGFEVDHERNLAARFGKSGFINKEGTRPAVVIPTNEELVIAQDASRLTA

In the case of `CC(C)C(=O)O` [Isobutyric acid], the “substrate specificity, relative value when the activity value with respect to butyric acid is 100” value (“substrate specificity, relative value” for short) [1] is reported as 84%, the “substrate specificity, relative value” value [2] is reported as 80% and the reaction recovery rate (acetate kinase (AK); [6]) is reported as 0%. The reaction recovery rate (acetate kinase (AK); [7]) was 0%, the reaction recovery rate (acetate kinase (AK); [8]) was 0% and the reaction recovery rate (acetate kinase (AK); [9]) was 0%. For the same molecule, the reaction recovery rate (acetate kinase (AK); [10]) was 0%, the reaction recovery rate (acetate kinase (AK); [11]) was 0% and the reaction recovery rate [3, 12] was 0%. The reaction recovery rate [3, 13] was 0%, the reaction recovery rate [3, 14] was 0% and the reaction recovery rate [3, 15] was 0%. The reaction recovery rate [3, 16] was 0%, the reaction recovery rate [3, 17] was 0% and the reaction recovery rate (BKIII; [18]) was 40%. It also gave a reaction recovery rate (BKIII; [19]) of 55%, a reaction recovery rate (BKIII; [20]) of 70% and a reaction recovery rate (BKIII; [21]) of 83%. For the same molecule, the reaction recovery rate (BKIII; [22]) was 91%, the reaction recovery rate (BKIII; [23]) was 96% and the “Reaction recovery rate (%)” value [4] was 4%. For the same molecule, the “Reaction recovery rate (%)” value [5] was 2%.
For `CCCC(=O)O` [Butyric acid], the “substrate specificity, relative value” value [1] was 100%, the “substrate specificity, relative value” value [2] was 100% and the reaction recovery rate (acetate kinase (AK); [6]) was 0%. The reaction recovery rate (acetate kinase (AK); [7]) was 0%, the reaction recovery rate (acetate kinase (AK); [8]) was 0% and the reaction recovery rate (acetate kinase (AK); [9]) was 0%. It also gave a reaction recovery rate (acetate kinase (AK); [10]) of 0%, a reaction recovery rate (acetate kinase (AK); [11]) of 0% and a reaction recovery rate [3, 12] of 0%. It also gave a reaction recovery rate [3, 13] of 0%, a reaction recovery rate [3, 14] of 0% and a reaction recovery rate [3, 15] of 2%. For the same molecule, the reaction recovery rate [3, 16] was 4%, the reaction recovery rate [3, 17] was 8% and the reaction recovery rate (BKIII; [18]) was 36%. It also gave a reaction recovery rate (BKIII; [19]) of 53%, a reaction recovery rate (BKIII; [20]) of 70% and a reaction recovery rate (BKIII; [21]) of 84%. For the same molecule, the reaction recovery rate (BKIII; [22]) was 93%, the reaction recovery rate (BKIII; [23]) was 98% and the “Reaction recovery rate (%)” value [4] was 3%. For the same molecule, the “Reaction recovery rate (%)” value [5] was 2%.
